Assays:
[1] = target: T1, NUAK family SNF1-like kinase 2 (Homo sapiens) (UniProt Q9H093); assay: Inhibition of human recombinant NuaK2 at 40 nM related to control ULK1
T1 sequence (whole entry): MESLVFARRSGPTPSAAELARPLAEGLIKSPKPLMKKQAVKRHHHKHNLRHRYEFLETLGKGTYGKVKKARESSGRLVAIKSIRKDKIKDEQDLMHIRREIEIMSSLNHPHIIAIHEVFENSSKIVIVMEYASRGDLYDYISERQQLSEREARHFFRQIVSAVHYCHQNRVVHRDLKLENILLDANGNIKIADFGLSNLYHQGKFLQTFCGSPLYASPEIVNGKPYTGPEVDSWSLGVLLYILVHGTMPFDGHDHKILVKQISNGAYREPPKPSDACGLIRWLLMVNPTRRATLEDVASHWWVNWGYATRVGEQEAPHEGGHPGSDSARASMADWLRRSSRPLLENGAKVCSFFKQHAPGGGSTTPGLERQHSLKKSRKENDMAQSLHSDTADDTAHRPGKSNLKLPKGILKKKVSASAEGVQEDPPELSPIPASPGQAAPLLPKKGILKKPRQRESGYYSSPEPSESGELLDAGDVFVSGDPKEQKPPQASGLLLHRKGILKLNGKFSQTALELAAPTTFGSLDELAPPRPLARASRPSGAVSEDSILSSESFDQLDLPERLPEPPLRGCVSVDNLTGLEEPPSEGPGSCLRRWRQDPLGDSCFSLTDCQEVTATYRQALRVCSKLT

[2] = target: Protein kinase C theta type (Homo sapiens) (UniProt Q04759); assay: Inhibition of human recombinant PKCt at 40 nM related to control ULK1
[3] = target: Protein kinase C alpha type (Homo sapiens) (UniProt P17252); assay: Inhibition of human recombinant PKCa at 15 nM in presence of ATP by radiometric assay relative to control
[4] = target: T2, cGMP-dependent protein kinase 2 (Homo sapiens) (UniProt Q13237); assay: Inhibition of human recombinant PKG2 at 15 nM in presence of ATP by radiometric assay relative to control
T2 sequence (whole entry): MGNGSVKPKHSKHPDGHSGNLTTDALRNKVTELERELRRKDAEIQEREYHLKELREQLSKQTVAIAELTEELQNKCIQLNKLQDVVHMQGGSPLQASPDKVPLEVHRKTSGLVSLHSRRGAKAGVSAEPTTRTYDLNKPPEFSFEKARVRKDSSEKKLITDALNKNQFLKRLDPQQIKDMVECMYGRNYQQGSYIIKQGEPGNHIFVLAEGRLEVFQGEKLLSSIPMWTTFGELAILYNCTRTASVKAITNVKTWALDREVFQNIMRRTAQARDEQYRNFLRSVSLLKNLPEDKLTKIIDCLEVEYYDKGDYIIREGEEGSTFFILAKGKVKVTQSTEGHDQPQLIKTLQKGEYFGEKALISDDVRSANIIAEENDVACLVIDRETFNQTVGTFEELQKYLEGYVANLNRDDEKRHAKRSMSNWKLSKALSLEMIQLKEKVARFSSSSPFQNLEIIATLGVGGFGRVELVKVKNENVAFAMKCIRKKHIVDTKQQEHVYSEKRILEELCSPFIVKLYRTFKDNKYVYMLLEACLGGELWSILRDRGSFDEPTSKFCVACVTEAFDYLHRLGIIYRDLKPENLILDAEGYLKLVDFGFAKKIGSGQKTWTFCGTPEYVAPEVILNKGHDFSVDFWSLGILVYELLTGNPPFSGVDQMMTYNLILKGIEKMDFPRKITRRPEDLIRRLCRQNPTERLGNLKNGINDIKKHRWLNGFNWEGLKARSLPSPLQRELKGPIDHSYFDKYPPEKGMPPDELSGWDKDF

[5] = target: Angiopoietin-1 receptor (Homo sapiens) (UniProt Q02763); assay: Inhibition of human recombinant Tie2 at 15 nM in presence of ATP by radiometric assay relative to control
[6] = target: Fibroblast growth factor receptor 1 (Homo sapiens) (UniProt P11362); assay: Inhibition of human recombinant FGFR1 at 15 nM related to control ULK1
[7] = target: T3, NUAK family SNF1-like kinase 1 (Homo sapiens) (UniProt O60285); assay: Inhibition of human recombinant NuaK1 at 500 nM in presence of ATP by radiometric assay relative to control
T3 sequence (whole entry): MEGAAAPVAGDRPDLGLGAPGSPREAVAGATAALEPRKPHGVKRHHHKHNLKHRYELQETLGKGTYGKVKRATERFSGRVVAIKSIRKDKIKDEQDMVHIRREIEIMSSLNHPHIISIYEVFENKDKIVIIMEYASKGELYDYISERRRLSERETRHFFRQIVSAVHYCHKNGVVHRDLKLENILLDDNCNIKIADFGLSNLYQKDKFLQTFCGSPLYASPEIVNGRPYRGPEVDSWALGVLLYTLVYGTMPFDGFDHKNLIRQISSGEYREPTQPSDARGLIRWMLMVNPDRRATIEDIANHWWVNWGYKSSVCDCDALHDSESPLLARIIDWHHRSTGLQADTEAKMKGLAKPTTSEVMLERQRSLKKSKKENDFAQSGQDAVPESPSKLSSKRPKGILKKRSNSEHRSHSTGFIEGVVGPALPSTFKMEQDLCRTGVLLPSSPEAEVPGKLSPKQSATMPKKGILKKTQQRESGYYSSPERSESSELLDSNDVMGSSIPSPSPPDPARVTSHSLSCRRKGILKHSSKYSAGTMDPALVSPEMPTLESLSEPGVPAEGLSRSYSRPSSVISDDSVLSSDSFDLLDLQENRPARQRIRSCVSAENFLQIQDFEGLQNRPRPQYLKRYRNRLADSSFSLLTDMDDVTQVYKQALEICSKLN

Chain of Angiopoietin-1 receptor (Homo sapiens) (Q02763 whole entry): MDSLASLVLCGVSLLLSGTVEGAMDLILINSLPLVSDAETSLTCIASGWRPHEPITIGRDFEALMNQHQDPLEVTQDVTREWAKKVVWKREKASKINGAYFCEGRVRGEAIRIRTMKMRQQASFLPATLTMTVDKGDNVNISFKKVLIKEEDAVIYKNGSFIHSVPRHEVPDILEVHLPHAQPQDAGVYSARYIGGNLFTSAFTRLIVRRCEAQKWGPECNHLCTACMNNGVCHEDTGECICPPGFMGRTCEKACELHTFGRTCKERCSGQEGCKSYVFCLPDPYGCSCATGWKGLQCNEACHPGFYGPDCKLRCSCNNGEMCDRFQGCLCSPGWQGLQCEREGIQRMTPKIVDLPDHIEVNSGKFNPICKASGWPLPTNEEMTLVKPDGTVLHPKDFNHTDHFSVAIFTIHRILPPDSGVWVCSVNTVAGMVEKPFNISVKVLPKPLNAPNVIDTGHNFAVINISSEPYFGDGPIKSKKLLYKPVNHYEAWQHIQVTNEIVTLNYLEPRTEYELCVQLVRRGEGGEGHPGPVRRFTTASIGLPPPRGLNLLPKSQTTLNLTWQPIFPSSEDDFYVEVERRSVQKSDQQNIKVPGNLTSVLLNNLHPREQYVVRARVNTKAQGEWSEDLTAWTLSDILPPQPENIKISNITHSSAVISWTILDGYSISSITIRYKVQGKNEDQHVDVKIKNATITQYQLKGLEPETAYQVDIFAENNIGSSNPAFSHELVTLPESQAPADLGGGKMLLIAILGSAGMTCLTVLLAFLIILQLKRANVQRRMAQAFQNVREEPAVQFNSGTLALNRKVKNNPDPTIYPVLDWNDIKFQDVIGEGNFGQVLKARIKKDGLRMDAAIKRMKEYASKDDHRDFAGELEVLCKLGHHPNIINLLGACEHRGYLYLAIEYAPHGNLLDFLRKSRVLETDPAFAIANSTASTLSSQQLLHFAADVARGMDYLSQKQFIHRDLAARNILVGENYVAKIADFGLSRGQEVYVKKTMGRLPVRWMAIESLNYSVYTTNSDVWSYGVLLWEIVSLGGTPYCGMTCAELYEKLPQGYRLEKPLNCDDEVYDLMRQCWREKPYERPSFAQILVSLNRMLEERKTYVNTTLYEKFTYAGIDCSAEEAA
Chain of Fibroblast growth factor receptor 1 (Homo sapiens) (P11362 22-822 limits assumed): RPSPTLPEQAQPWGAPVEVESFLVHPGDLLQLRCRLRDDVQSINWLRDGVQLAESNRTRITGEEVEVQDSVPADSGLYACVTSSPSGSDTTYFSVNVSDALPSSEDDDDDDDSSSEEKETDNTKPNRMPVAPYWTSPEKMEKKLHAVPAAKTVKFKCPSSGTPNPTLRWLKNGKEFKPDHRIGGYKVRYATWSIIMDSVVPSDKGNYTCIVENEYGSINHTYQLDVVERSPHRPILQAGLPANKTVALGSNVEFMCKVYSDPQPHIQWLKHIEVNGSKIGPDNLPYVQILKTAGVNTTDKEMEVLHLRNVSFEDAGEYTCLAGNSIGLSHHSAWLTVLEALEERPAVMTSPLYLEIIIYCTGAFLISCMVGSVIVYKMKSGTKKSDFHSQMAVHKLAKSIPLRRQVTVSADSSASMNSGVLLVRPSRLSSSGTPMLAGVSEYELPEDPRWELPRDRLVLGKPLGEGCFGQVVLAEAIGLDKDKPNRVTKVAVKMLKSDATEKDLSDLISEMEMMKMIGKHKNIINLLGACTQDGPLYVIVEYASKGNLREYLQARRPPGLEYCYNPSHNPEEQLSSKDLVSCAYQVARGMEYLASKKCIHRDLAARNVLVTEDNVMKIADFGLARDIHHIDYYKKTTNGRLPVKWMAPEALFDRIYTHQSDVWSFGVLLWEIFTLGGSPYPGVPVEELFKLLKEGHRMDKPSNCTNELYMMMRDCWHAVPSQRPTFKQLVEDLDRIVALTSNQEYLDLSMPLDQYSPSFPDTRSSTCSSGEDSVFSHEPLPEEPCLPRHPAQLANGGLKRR
Chain of Protein kinase C theta type (Homo sapiens) (Q04759 whole entry, looked up): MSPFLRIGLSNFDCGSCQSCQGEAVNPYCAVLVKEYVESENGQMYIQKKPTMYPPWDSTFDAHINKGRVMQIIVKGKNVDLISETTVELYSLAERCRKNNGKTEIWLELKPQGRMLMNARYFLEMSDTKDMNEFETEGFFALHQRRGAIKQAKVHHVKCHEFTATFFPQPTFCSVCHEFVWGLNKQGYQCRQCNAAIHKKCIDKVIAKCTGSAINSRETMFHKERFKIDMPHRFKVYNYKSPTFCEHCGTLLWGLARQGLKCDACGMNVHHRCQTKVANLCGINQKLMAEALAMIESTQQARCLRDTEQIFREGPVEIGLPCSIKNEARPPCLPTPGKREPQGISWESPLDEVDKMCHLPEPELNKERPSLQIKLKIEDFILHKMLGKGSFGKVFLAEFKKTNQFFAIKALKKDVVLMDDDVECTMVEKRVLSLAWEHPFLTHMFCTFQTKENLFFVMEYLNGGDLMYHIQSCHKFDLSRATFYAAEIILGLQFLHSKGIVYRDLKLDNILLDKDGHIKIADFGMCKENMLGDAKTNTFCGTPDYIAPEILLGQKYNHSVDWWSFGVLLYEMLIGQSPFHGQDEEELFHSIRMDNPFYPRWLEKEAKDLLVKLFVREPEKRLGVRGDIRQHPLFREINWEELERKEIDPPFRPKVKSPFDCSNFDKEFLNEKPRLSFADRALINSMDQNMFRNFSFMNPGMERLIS

## O=C(N[C@@H](C1CC1)C(F)(F)F)c1cc(-c2cnn3cc(-c4ccc(F)cc4)cnc23)cs1
[1]
  fold change (FC): 0.04
[2]
  fold change (FC): 0

## CC(C)[C@H](NC(=O)c1cc(-c2cnn3cc(-c4ccc(OCCN5CCCCC5)cc4)cnc23)cs1)C(F)(F)F
[3]
  inhibition: 7%
[4]
  inhibition: 4%
[5]
  inhibition: 0%
[6]
  fold change (FC): 0

## CNC(=O)c1ccccc1Oc1nc(Nc2cc(OC)c(OC)c(OC)c2)ncc1Br
[7]
  inhibition: 71%

Source: ChEMBL document CHEMBL5653631, “A Potent and Selective ULK1 Inhibitor Suppresses Autophagy and Sensitizes Cancer Cells to Nutrient Stress” (iScience, 2018)
